Laboratory results published in US20050163835A1, “Pharmaceutical formulation of iressa comprising a water-soluble cellulose derivative” (AstraZeneca AB, priority 2002, published 2005).

Assays:
[1] = pH shift dissolution (precipitation) test; type: physicochemical
Experimental: The formulations described in the examples above were dissoluted in media comprising 500 ml 0.07N HCl (approximately pH 1.5) and sodium chloride (0.2% w/v) for one hour at 37° C. (paddle speed 100 rpm). A 5 ml sample was taken at 60 minutes and the media replaced.
10 ml of a 2.5M KH2PO4/16.72% (w/v) NaOH solution was then added to shift the pH to 6.5. 5ml samples were then removed with a plastic syringe at 2, 5, 15, 30, 45 and 60 minutes after pH adjustment and media replaced after every sampling time point. Each sample was centrifuged (14,000 rpm) at ambient temperature for 15 minutes and then analysed by HPLC using the following conditions:

[2] = pH-dependent aqueous solubility of the Agent; type: physicochemical; conditions: free-base form

% Agent in solution at 2 mins after pH adjustment to pH 6.5 ([1]; 2 mins after shift from pH 1.5 to pH 6.5, HPLC of centrifuged sample): 6.5% | % Agent in solution at 5 mins after pH adjustment to pH 6.5 ([1]; 5 mins after shift from pH 1.5 to pH 6.5, HPLC of centrifuged sample): 6.9% | % Agent in solution after 60 mins in acidic media (~pH 1.5) ([1]; 500 ml 0.07N HCl, 0.2% w/v NaCl, 37° C., before pH shift, HPLC): 102.6% | solubility in aqueous media ([2]; above pH 7): practically insoluble | aqueous solvent required to dissolve 1 g of Agent ([2]; pH 6): ≥ 10000 mL
SMILES: COc1cc2ncnc(Nc3ccc(F)c(Cl)c3)c2cc1OCCCN1CCOCC1 [Agent, 4-(3′-chloro-4′-fluoroanilino)-7-methoxy-6-(3-morpholinopropoxy)quinazoline]
